Laboratory results taken from US9597314B2, “Beta-lactamylalkanoic acids for treating premenstrual disorders” (AZEVAN PHARMACEUTICALS, INC., priority 2005, dated 2017).

Biological target: V1a (Homo sapiens, UniProt P37288)
Assay: Human vasopression V1a receptor binding assay
Set-up: host or cells: CHO cells (hV1a cell line), whole adherent cells
Conditions: hV1a cell line (CHO); for IC50: 1 nM 3H-AVP, Table 17, read-out: V1a Binding Affinity (IC50 (nM)); for Ki: Table 18
Procedure: Human vasopression V1a receptor binding assay. A cell line expressing the human V1a receptor in CHO cells (henceforth referred to as the hV1a cell line) was obtained from Dr. Michael Brownstein, NIMH, Bethesda, Md., USA. The hV1a cDNA sequence is described by Thibonnier et al., Journal of Biological Chemistry, 269, 3304-3310 (1994), and the expression method was the same as described by Morel et al. (1992). The hV1a cell line was grown in alpha-MEM with 10% fetal bovine serum and 250 ug/ml G418 (Gibco, Grand Island, N.Y., USA). For competitive binding assay, hV1a cells were plated into 6-well culture plate at 1:10 dilution from a confluency flask, and maintained in culture for at least two days. Culture medium was then removed, cells were washed with 2 ml binding buffer (25 mM Hepes, 0.25% BSA, 1×DMEM, PH=7.0). To each well, 990 μl binding buffer containing 1 nM 3H-AVP was added, and followed by 10 μl series diluted Example compounds dissolved in DMSO. […] 100 nM cold AVP (Sigma) was used to assess non-specific binding. Cells were incubated for 45 minutes at 37° C., assay mixture was removed and each well was washed three times with PBS (pH=7.4). 1 ml 2% SDS was added per well and plates were let sit for 30 minutes. The whole content in a well was transferred to a scintillation vial. Each well was rinsed with 0.5 ml PBS which was then added to the corresponding vial. Scintillation fluid (Ecoscint, National Diagnostics, Atlanta, Ga.) was then added at 3 ml per vial. Samples were counted in a liquid scintillation counter (Beckman LS3801). IC50 values were calculated by Prism Curve fitting software.
All of the alkanedioic esters and amides exemplified in the foregoing examples dissolved in DMSO were tested in this assay. Binding curves were generated according to methods described by Thibonnier et al. (1994). [^3H]-AVP was added to the hV1a cell cultures followed by 10 fold dilutions of each test compound.

Sequence of V1a (P37288 whole entry): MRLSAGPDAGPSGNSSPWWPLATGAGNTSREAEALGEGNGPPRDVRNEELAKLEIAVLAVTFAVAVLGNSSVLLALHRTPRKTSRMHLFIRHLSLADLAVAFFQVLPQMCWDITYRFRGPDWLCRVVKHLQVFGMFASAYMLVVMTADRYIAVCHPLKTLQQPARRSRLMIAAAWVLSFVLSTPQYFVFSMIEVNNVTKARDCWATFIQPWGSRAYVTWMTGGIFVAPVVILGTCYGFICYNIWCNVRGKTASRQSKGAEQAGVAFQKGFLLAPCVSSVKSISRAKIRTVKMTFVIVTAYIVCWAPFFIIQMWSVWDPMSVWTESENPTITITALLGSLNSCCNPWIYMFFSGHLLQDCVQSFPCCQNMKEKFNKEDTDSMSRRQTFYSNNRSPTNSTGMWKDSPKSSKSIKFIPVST

Structure (SMILES)	IC50	Ki
O=C(NCc1cc(C(F)(F)F)ccc1F)[C@H](CCC(=O)N1CCN(C2CCCCC2)CC1)N1C(=O)[C@@H](N2C(=O)OC[C@@H]2c2ccccc2)[C@H]1/C=C/c1ccccc1 [Example 177]	0.67 nM	
CC(C)N1CCN(C(=O)CC[C@H](C(=O)NCc2cccc(C(F)(F)F)c2)N2C(=O)[C@@H](N3C(=O)OC[C@@H]3c3ccccc3)[C@H]2/C=C/c2ccccc2)CC1 [Example 138]		13 nM
O=C(NCc1ccc(Cl)c(Cl)c1)[C@H](CCC(=O)N1CCN(C2CCCCC2)CC1)N1C(=O)[C@@H](N2C(=O)OC[C@@H]2c2ccccc2)[C@H]1/C=C/c1ccccc1 [Example 173]	< 100 nM	
O=C(NCc1ccccc1)[C@H](CCC(=O)N1CCN(C2CCCCC2)CC1)N1C(=O)[C@@H](N2C(=O)OC[C@@H]2c2ccccc2)[C@H]1/C=C/c1ccccc1 [Example 191]	2.92 nM	1.79 nM
COc1ccc(OC)c(CNC(=O)[C@H](CCC(=O)N2CCN(C3CCCCC3)CC2)N2C(=O)[C@@H](N3C(=O)OC[C@@H]3c3ccccc3)[C@H]2/C=C/c2ccccc2)c1 [Example 219]	0.63 nM	0.39 nM
O=C(NCc1ccncc1)[C@H](CCC(=O)N1CCN(C2CCCCC2)CC1)N1C(=O)[C@@H](N2C(=O)OC[C@@H]2c2ccccc2)[C@H]1/C=C/c1ccccc1 [Example 210]	29.5 nM	18.1 nM
O=C(NCc1cccc(C(F)(F)F)c1)[C@H](CCC(=O)N1CCN(CCN2CCOCC2)CC1)N1C(=O)[C@@H](N2C(=O)OC[C@@H]2c2ccccc2)[C@H]1/C=C/c1ccccc1 [Example 112]		0.8 nM
O=C(NCc1cccc(C(F)(F)F)c1)[C@H](CCC(=O)N1CCN(C2CCCCC2)CC1)N1C(=O)[C@@H](N2C(=O)OC[C@@H]2c2ccccc2)[C@H]1/C(Cl)=C/c1ccccc1 [Example 226]	0.49 nM	0.3 nM
CC(C)N1CCN(C(=O)CC[C@@H](C(=O)NCc2cccc(C(F)(F)F)c2)N2C(=O)[C@@H](N3C(=O)OC[C@@H]3c3ccccc3)[C@H]2/C(Cl)=C/c2ccccc2)CC1 [Example 230]	7.07 nM	4.33 nM
O=C(NCc1ccc(Cl)c(C(F)(F)F)c1)[C@H](CCC(=O)N1CCN(C2CCCCC2)CC1)N1C(=O)[C@@H](N2C(=O)OC[C@@H]2c2ccccc2)[C@H]1/C=C/c1ccccc1 [Example 181]	< 50 nM	
O=C(NCc1cccc(C(F)(F)F)c1)[C@H](CCC(=O)N1CCN(CCC2CCCCC2)CC1)N1C(=O)[C@@H](N2C(=O)OC[C@@H]2c2ccccc2)[C@H]1/C=C/c1ccccc1 [Example 111]		0.82 nM
O=C(NCc1cccc(C(F)(F)F)c1)C(C(=O)N1CCN(CCc2ccccc2)CC1)N1C(=O)[C@@H](N2C(=O)OC[C@@H]2c2ccccc2)[C@H]1/C=C/c1ccccc1 (mixture of isomers) [Example 38]		85 nM
CCCCN1CCN(C(=O)CCC(C(=O)NCc2cccc(C(F)(F)F)c2)N2C(=O)C(N3C(=O)OCC3c3ccccc3)C2C=Cc2ccccc2)CC1 (single isomer, unassigned) [Example 103]		0.49 nM
Cc1ccc(CNC(=O)[C@H](CCC(=O)N2CCN(C3CCCCC3)CC2)N2C(=O)[C@@H](N3C(=O)OC[C@@H]3c3ccccc3)[C@H]2/C=C/c2ccccc2)cc1 [Example 194]	< 100 nM	
COc1cccc([C@H](C)NC(=O)[C@H](CCC(=O)N2CCN(C3CCCCC3)CC2)N2C(=O)[C@@H](N3C(=O)OC[C@@H]3c3ccccc3)[C@H]2/C=C/c2ccccc2)c1 [Example 203]	2.46 nM	1.5 nM
O=C(NCc1cccnc1)[C@H](CCC(=O)N1CCN(C2CCCCC2)CC1)N1C(=O)[C@@H](N2C(=O)OC[C@@H]2c2ccccc2)[C@H]1/C=C/c1ccccc1 [Example 209]	16 nM	9.8 nM
O=C(NCc1cccc(Br)c1)[C@H](CCC(=O)N1CCN(C2CCCCC2)CC1)N1C(=O)[C@@H](N2C(=O)OC[C@@H]2c2ccccc2)[C@H]1/C=C/c1ccccc1 [Example 190]	0.88 nM	0.54 nM
O=C(NCc1cccc(C(F)(F)F)c1)C(C(=O)NC1CCN(Cc2ccccc2)CC1)N1C(=O)[C@@H](N2C(=O)OC[C@@H]2c2ccccc2)[C@H]1/C=C/c1ccccc1 (mixture of isomers) [Example 39]		13.3 nM
O=C(NCc1cc(F)cc(F)c1)[C@H](CCC(=O)N1CCN(C2CCCCC2)CC1)N1C(=O)[C@@H](N2C(=O)OC[C@@H]2c2ccccc2)[C@H]1/C=C/c1ccccc1 [Example 185]	1.27 nM	
O=C(C[C@@H](C(=O)NCc1cccc(C(F)(F)F)c1)N1C(=O)[C@@H](N2C(=O)OC[C@@H]2c2ccccc2)[C@H]1/C=C/c1ccccc1)NC1CCN(Cc2ccccc2)CC1 [Example 63]		1.13 nM
CCCN1CCN(C(=O)CC[C@@H](C(=O)NCc2cccc(C(F)(F)F)c2)N2C(=O)[C@@H](N3C(=O)OC[C@@H]3c3ccccc3)[C@H]2/C=C/c2ccccc2)CC1 [Example 120B]	2.93 nM	1.79 nM
O=C(NCc1cccc(C(F)(F)F)c1)[C@@H](CCC(=O)N1CCN(CCc2ccccc2)CC1)N1C(=O)[C@@H](N2C(=O)OC[C@@H]2c2ccccc2)[C@H]1/C=C/c1ccccc1 [Example 136]		33 nM
O=C(NC1CCCc2ccccc21)C(CCC(=O)N1CCN(C2CCCCC2)CC1)N1C(=O)C(N2C(=O)OCC2c2ccccc2)C1C=Cc1ccccc1 (single isomer, unassigned) [Example 214]	1.86 nM	1.14 nM
CC(C)(NC(=O)[C@H](CCC(=O)N1CCN(C2CCCCC2)CC1)N1C(=O)[C@@H](N2C(=O)OC[C@@H]2c2ccccc2)[C@H]1/C=C/c1ccccc1)c1ccccc1 [Example 204]	6 nM	3.7 nM
O=C(NCc1cccc(C(F)(F)F)c1F)[C@H](CCC(=O)N1CCN(C2CCCCC2)CC1)N1C(=O)[C@@H](N2C(=O)OC[C@@H]2c2ccccc2)[C@H]1/C=C/c1ccccc1 [Example 180]	0.33 nM	
COc1ccccc1CNC(=O)[C@H](CCC(=O)N1CCN(C2CCCCC2)CC1)N1C(=O)[C@@H](N2C(=O)OC[C@@H]2c2ccccc2)[C@H]1/C=C/c1ccccc1 [Example 220]	5.3 nM	3.26 nM

The next lines start with the values.

IC50	Ki	Structure (SMILES)
4 nM	2.5 nM	O=C(NC1(c2ccccc2F)CCCC1)[C@H](CCC(=O)N1CCN(C2CCCCC2)CC1)N1C(=O)[C@@H](N2C(=O)OC[C@@H]2c2ccccc2)[C@H]1/C=C/c1ccccc1 [Example 221H]
6.3 nM	3.9 nM	O=C(NC1(c2ccccc2)CCCC1)[C@H](CC(=O)N1CCC(N2CCCCC2)CC1)N1C(=O)[C@@H](N2C(=O)OC[C@@H]2c2ccccc2)[C@H]1/C=C/c1ccccc1 [Example 132D]
8.4 nM	5.1 nM	O=C(CC[C@@H](C(=O)N1CCc2ccccc2C1)N1C(=O)[C@@H](N2C(=O)OC[C@@H]2c2ccccc2)[C@H]1/C=C/c1ccccc1)N1CCN(C2CCCCC2)CC1 [Example 221O]
~30 nM		O=C(Nc1cccc2c1CCC2)[C@H](CCC(=O)N1CCN(C2CCCCC2)CC1)N1C(=O)[C@@H](N2C(=O)OC[C@@H]2c2ccccc2)[C@H]1/C=C/c1ccccc1 [Example 221AY]
~100 nM		O=C(CC[C@@H](C(=O)N[C@@H]1CCCc2ccccc21)N1C(=O)[C@@H](N2C(=O)OC[C@@H]2c2ccccc2)[C@H]1/C=C/c1ccccc1)Nc1cnc2ccccc2c1 [Example 221AL]
~100 nM		COc1ccc(C2(NC(=O)[C@H](CCC(=O)N3CCN(C4CCCCC4)CC3)N3C(=O)[C@@H](N4C(=O)OC[C@@H]4c4ccccc4)[C@H]3/C=C/c3ccccc3)CC2)cc1 [Example 221AO]
12.9 nM	7.9 nM	O=C(NCc1cccc(C(F)(F)F)c1)[C@@H](CC(=O)N1CCC(CCN2CCCCC2)CC1)N1C(=O)[C@@H](N2C(=O)OC[C@@H]2c2ccccc2)[C@H]1/C=C/c1ccccc1 [Example 134A]
~50 nM		O=C(CC[C@@H](C(=O)N[C@@H]1CCCc2ccccc21)N1C(=O)[C@@H](N2C(=O)OC[C@@H]2c2ccccc2)[C@H]1/C=C/c1ccccc1)N[C@@H]1CCN(Cc2ccccc2)C1 [Example 221AD]
1.5 nM	0.93 nM	O=C(NC1(c2ccccc2)CCCCC1)[C@H](CCC(=O)N1CCN(C2CCCCC2)CC1)N1C(=O)[C@@H](N2C(=O)OC[C@@H]2c2ccccc2)[C@H]1/C=C/c1ccccc1 [Example 221G]
5.29 nM	3.25 nM	CC(C)(NC(=O)[C@@H](CC(=O)N1CCC(N2CCCCC2)CC1)N1C(=O)[C@@H](N2C(=O)OC[C@@H]2c2ccccc2)[C@H]1/C=C/c1ccccc1)c1ccccc1 [Example 134J]
3 nM	1.84 nM	CN(Cc1cccc(Cl)c1)C(=O)[C@H](CCC(=O)N1CCN(C2CCCCC2)CC1)N1C(=O)[C@@H](N2C(=O)OC[C@@H]2c2ccccc2)[C@H]1/C=C/c1ccccc1 [Example 221C]
~20 nM		Cc1ccc(C2(NC(=O)[C@H](CCC(=O)N3CCN(C4CCCCC4)CC3)N3C(=O)[C@@H](N4C(=O)OC[C@@H]4c4ccccc4)[C@H]3/C=C/c3ccccc3)CCCC2)cc1 [Example 221AS]
